Test results taken from ChEMBL document CHEMBL5500372, “Novel natural osthole-inspired amphiphiles as membrane targeting antibacterials against methicillin-resistant Staphylococcus aureus (MRSA)” (Eur J Med Chem, 2024).
≈ marks a conversion by molar mass, not a printed value.

Legend:
[1] = system: Staphylococcus aureus; assay: Antibacterial activity against Staphylococcus aureus ATCC 29213 measured after 18 hrs by CLSI based broth microdilution method; format: functional
[2] = system: Staphylococcus aureus; assay: Antibacterial activity against methicillin-resistant Staphylococcus aureus clinical isolate 17 measured after 18 hrs by CLSI based broth microdilution method; format: functional
[3] = system: Staphylococcus aureus; assay: Antibacterial activity against methicillin-resistant Staphylococcus aureus clinical isolate 13 measured after 18 hrs by CLSI based broth microdilution method; format: functional
[4] = system: Staphylococcus aureus; assay: Antibacterial activity against methicillin-resistant Staphylococcus aureus clinical isolate 23 measured after 18 hrs by CLSI based broth microdilution method; format: functional
[5] = system: Staphylococcus aureus; assay: Antibacterial activity against methicillin-resistant Staphylococcus aureus clinical isolate 16 measured after 18 hrs by CLSI based broth microdilution method; format: functional
[6] = system: Staphylococcus aureus; assay: Antibacterial activity against methicillin-resistant Staphylococcus aureus clinical isolate 21 measured after 18 hrs by CLSI based broth microdilution method; format: functional
[7] = system: Staphylococcus aureus; assay: Antibacterial activity against methicillin-resistant Staphylococcus aureus clinical isolate 11 measured after 18 hrs by CLSI based broth microdilution method; format: functional
[8] = system: Staphylococcus aureus; assay: Antibacterial activity against methicillin-resistant Staphylococcus aureus clinical isolate 12 measured after 18 hrs by CLSI based broth microdilution method; format: functional
[9] = system: Staphylococcus aureus; assay: Antibacterial activity against methicillin-resistant Staphylococcus aureus clinical isolate 20 measured after 18 hrs by CLSI based broth microdilution method; format: functional
[10] = system: Staphylococcus aureus; assay: Antibacterial activity against methicillin-resistant Staphylococcus aureus clinical isolate 22 measured after 18 hrs by CLSI based broth microdilution method; format: functional
[11] = system: Staphylococcus aureus; assay: Antibacterial activity against methicillin-resistant Staphylococcus aureus clinical isolate 14 measured after 18 hrs by CLSI based broth microdilution method; format: functional
[12] = system: Escherichia coli; assay: Antibacterial activity against Escherichia coli ATCC 25922 measured after 18 hrs by CLSI based broth microdilution method; format: functional
[13] = Hemolytic activity in sheep erythrocyte assessed as hemolysis incubated for 1 hr by absorbance based analysis; format: toxicity, cell-based, Ovis aries; conditions: sheep erythrocytes
[14] = Selectivity index, ratio of HC50 for hemolytic activity in sheep erythrocyte assessed as hemolysis to MIC for antibacterial activity against Staphylococcus aureus ATCC 29213; format: toxicity; conditions: sheep erythrocytes, read-out: Selectivity Index

Structure (SMILES) | MIC [1] [µg/mL] | MIC [2] [µg/mL] | MIC [3] [µg/mL] | MIC [4] [µg/mL] | MIC [5] [µg/mL] | MIC [6] [µg/mL] | MIC [7] [µg/mL] | MIC [8] [µg/mL] | MIC [9] [µg/mL] | MIC [10] [µg/mL] | MIC [11] [µg/mL] | MIC [12] [µg/mL] | HC50 at 1 h [13] [µg/mL] | selectivity ratio [14]
CCN(CC)C(=O)C[N+](C)(C)CCCCOc1ccc2ccc(=O)oc2c1CC=C(C)C.[Br-] | 64 | 64 | 128 | 64 | 64 | 64 | 128 | 128 | 64 | 64 | 64 | > 128 | 1220 | 19
CCCCNC(=O)C[N+](C)(C)CCCCOc1ccc2ccc(=O)oc2c1CC=C(C)C.[Br-] | 32 | 16 | 32 | 16 | 16 | 16 | 16 | 32 | 16 | 16 | 16 | 128 | > 1280 | > 40
CCCCCNC(=O)C[N+](C)(C)CCCCOc1ccc2ccc(=O)oc2c1CC=C(C)C.[Br-] | 8 | 8 | 16 | 8 | 8 | 8 | 8 | 16 | 8 | 8 | 8 | 64 | > 1280 | > 160
CCCNC(=O)C[N+](C)(C)CCCCCOc1ccc2ccc(=O)oc2c1CC=C(C)C.[Br-] | 32 | 32 | 32 | 32 | 16 | 32 | 32 | 32 | 32 | 32 | 16 | 128 | 1140 | 35.8
CC(C)=CCc1c(OCCCCC[N+](C)(C)CC(=O)N(C(C)C)C(C)C)ccc2ccc(=O)oc12.[Br-] | 4 | 4 | 8 | 4 | 4 | 4 | 8 | 8 | 4 | 4 | 4 | > 128 | 736 | 184
CC(C)=CCc1c(OCCCC[N+](C)(C)CC(=O)N(C(C)C)C(C)C)ccc2ccc(=O)oc12.[Br-] | 16 | 16 | 32 | 16 | 16 | 16 | 16 | 32 | 16 | 16 | 16 | 128 | 1270 | 79.2
CCCN(CCC)C(=O)C[N+](C)(C)CCCCOc1ccc2ccc(=O)oc2c1CC=C(C)C.[Br-] | 16 | 16 | 32 | 16 | 16 | 16 | 16 | 32 | 32 | 16 | 16 | > 128 | > 1280 | > 80
CCNC(=O)C[N+](C)(C)CCCCCOc1ccc2ccc(=O)oc2c1CC=C(C)C.[Br-] | 64 | 64 | 64 | 32 | 32 | 64 | 64 | 64 | 64 | 32 | 32 | > 128 | > 1280 | > 20
CCCCN(CCCC)C(=O)C[N+](C)(C)CCCOc1ccc2ccc(=O)oc2c1CC=C(C)C.[Br-] | 4 | 8 | 4 | 4 | 4 | 4 | 4 | 8 | 4 | 4 | 4 | 128 | 1090 | 272
CC(C)=CCc1c(OCCCC[N+](C)(C)CC(=O)N(CC(C)C)CC(C)C)ccc2ccc(=O)oc12.[Br-] | 4 | 1 | 4 | 2 | 2 | 2 | 2 | 4 | 2 | 4 | 2 | 128 | > 1280 | > 320
COc1ccc2ccc(=O)oc2c1CC=C(C)C [OSTHOLE] | > 64 | 64 (≈ 262 µM) | > 64 | > 64 | 64 (≈ 262 µM) | > 64 | > 64 | 64 (≈ 262 µM) | 64 (≈ 262 µM) | 64 (≈ 262 µM) | 64 (≈ 262 µM) | > 64 | > 80 | 
CCCCCCNC(=O)C[N+](C)(C)CCCOc1ccc2ccc(=O)oc2c1CC=C(C)C.[Br-] | 4 | 4 | 8 | 4 | 4 | 4 | 4 | 8 | 4 | 4 | 4 | 32 | > 1280 | > 320
CCCCNC(=O)C[N+](C)(C)CCCCCOc1ccc2ccc(=O)oc2c1CC=C(C)C.[Br-] | 8 | 8 | 8 | 8 | 8 | 8 | 8 | 16 | 8 | 8 | 8 | 128 | 798 | 99.8
CC(C)=CCc1c(OCCC[N+](C)(C)CC(=O)N(C(C)C)C(C)C)ccc2ccc(=O)oc12.[Br-] | 16 | 16 | 16 | 16 | 16 | 16 | 16 | 16 | 32 | 16 | 16 | 128 | > 640 | > 40
C[C@@H](O)[C@H]1C(=O)N2C(C(=O)O)=C(S[C@@H]3CN[C@H](C(=O)N(C)C)C3)[C@H](C)[C@H]12 [MEROPENEM] |  |  |  |  |  |  |  |  |  |  |  | 0.062 (≈ 0.162 µM) |  | 
